These results are taken from US11246866B2, “Solid pharmaceutical compositions for treating HCV” (AbbVie Inc., priority 2015, dated 2022).

A short description of this series: Single-dose crossover bioavailability study of Compound 1/Compound 2 mini-tablets. The following applies: for t1/2: Compound 1, fasting, harmonic mean, N = 14; for effect of administration with food on bioavailability: co-formulated mini-tablets, solid dispersion form, with food vs fasting. In kind it is in vivo, human. The protocol:
In comparison, when administered with food, the mini-tablets provided an AUC that was only 5% lower than that provided by the regular tablets. […] All of the reference AUCs of the regular tablets were measured under fasting conditions. 14 subjects were enrolled in this study and dosed with co-formulated Compound 1/Compound 2 in mini-tablets. One subject spilled 4 mini-tablets (out of 100-150 total mini-tablets) during dosing of Period 2 (Regimen G) and was not excluded from the analysis. The mini-tablets were prepared according to a process similar to that described in Example 2. [table] [table]

Regarding `CC(C)(C)[C@@H]1NC(=O)O[C@@H]2CCC[C@H]2OC/C=C/C(F)(F)c2nc3ccccc3nc2O[C@@H]2C[C@@H](C(=O)N[C@]3(C(=O)NS(=O)(=O)C4(C)CC4)C[C@H]3C(F)F)N(C2)C1=O` [Compound 1], the “effect of administration with food on bioavailability” value is listed as “significantly increase”. The compound also returned a t1/2 (Regimen F: mini-tablets 200 mg/120 mg) of 5.61 h. The same compound had a t1/2 (Regimen J: two 100 mg Compound 1 tablets and three 40 mg Compound 2 tablets) of 5.93 h. Also, the “AUC lower than that provided by regular tablets” value (shortened to “AUC lower than that provided”) (mini-tablets containing 200 mg Compound 1, with food, vs two regular tablets under fasting conditions) is 5%. For the same compound, the “AUC lower than that provided” value (mini-tablets containing 200 mg Compound 1, without food, vs two regular tablets (same amount, same solid dispersion) under fasting conditions) came out at 41%.
`COC(=O)N[C@H](C(=O)N1CCC[C@H]1c1nc2cc([C@H]3CC[C@H](c4cc5nc([C@@H]6CCCN6C(=O)[C@@H](NC(=O)OC)[C@@H](C)OC)[nH]c5cc4F)N3c3cc(F)c(N4CCC(c5ccc(F)cc5)CC4)c(F)c3)c(F)cc2[nH]1)[C@@H](C)OC` [Compound 2]: the “effect of administration with food on bioavailability” value was “significantly increase”. In addition, the “AUC higher than that provided by regular tablets” value (mini-tablets containing 120 mg Compound 2, with food, vs three regular tablets under fasting conditions) was 6%. In addition, for the setting “mini-tablets containing 120 mg Compound 2, without food, vs three regular tablets under fasting conditions”, the “AUC lower than that provided” value amounted to 28%.
